Data reported in patent US11053204B2, “Pyrimidinyloxy benzene derivatives as herbicides” (FMC Corporation, priority 2015, dated 2021).

Tests used:
Assay type in all cases: in vivo
[1] = system: morningglory (Ipomoea coccinea); test: Test C postemergence, plant response rating; conditions: for Morningglory plant response rating: scale 0 to 100 (0 no effect, 100 complete control)
Outline: (§1)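 Preemergence: seeds sown in loam–sand blend or silt loam and sprayed with test chemicals in a non-phytotoxic surfactant-containing solvent. Postemergence: potted plants at 2–18 cm (1–4-leaf stage) sprayed with the same formulation. After 13–15 d in greenhouse, visual rating versus controls on 0 (no effect) to 100 (complete control) scale.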

[2] = system: chickweed (common chickweed, Stellaria media); test: Test C postemergence, plant response rating; conditions: for Chickweed plant response rating: scale 0 to 100 (0 no effect, 100 complete control)
Outline: as §1

[3] = system: foxtail, giant (giant foxtail, Setaria faberii); test: Test C postemergence, plant response rating; conditions: for Foxtail, Giant plant response rating: scale 0 to 100 (0 no effect, 100 complete control)
Outline: as §1

[4] = system: sedge, umbrella (small-flower umbrella sedge, Cyperus difformis); test: Test B flooded paddy test, plant response rating; conditions: 250 g ai/ha; Flood; scale of 0 to 100 where 0 is no effect and 100 is complete control; 13 to 15 days
Outline: (§2)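 Pots were flooded to 3 cm above the soil surface at treatment, compound applied directly to the paddy water, and that depth held throughout. Plants were kept in a greenhouse for 13 to 15 days, then visually rated against untreated controls.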

[5] = system: barnyardgrass (Echinochloa crus-galli); test: Test B flooded paddy test, plant response rating; conditions: 250 g ai/ha; Flood; scale of 0 to 100 where 0 is no effect and 100 is complete control; 13 to 15 days
Outline: as §2

[6] = system: ducksalad (Heteranthera limosa); test: Test B flooded paddy test, plant response rating; conditions: 250 g ai/ha; Flood; scale of 0 to 100 where 0 is no effect and 100 is complete control; 13 to 15 days
Outline: as §2

rice (Oryza sativa) = test: Test B flooded paddy test, plant response rating; conditions: 250 g ai/ha; Flood; scale of 0 to 100 where 0 is no effect and 100 is complete control; 13 to 15 days
Outline: as §2

[7] = system: waterhemp (common waterhemp, Amaranthus rudis); test: Test C preemergence, plant response rating; conditions: Preemergence
Outline: as §1

[8] = system: morningglory (Ipomoea coccinea); test: Test C preemergence, plant response rating; conditions: Preemergence
Outline: as §1

[9] = system: oilseed rape (Brassica napus); test: Test C preemergence, plant response rating; conditions: Preemergence
Outline: as §1

[10] = system: ryegrass, Italian (Italian ryegrass, Lolium multiflorum); test: Test C preemergence, plant response rating; conditions: Preemergence
Outline: as §1

soybean (Glycine max) = test: Test C preemergence, plant response rating; conditions: Preemergence
Outline: as §1

[11] = system: blackgrass (Alopecurus myosuroides); test: Test C preemergence, plant response rating; conditions: Preemergence
Outline: as §1

corn (Zea mays) = test: Test C preemergence, plant response rating; conditions: Preemergence
Outline: as §1

[12] = system: velvetleaf (Abutilon theophrasti); test: Test C preemergence, plant response rating; conditions: Preemergence
Outline: as §1

[13] = system: ragweed (common ragweed, Ambrosia elatior); test: Test C preemergence, plant response rating; conditions: Preemergence
Outline: as §1

[14] = system: wheat (winter wheat, Triticum aestivum); test: Test C preemergence, plant response rating; conditions: Preemergence
Outline: as §1

[15] = system: crabgrass, large (large crabgrass, Digitaria sanguinalis); test: Test C preemergence, plant response rating; conditions: Preemergence
Outline: as §1

[16] = system: lambsquarters (Chenopodium album); test: Test C preemergence, plant response rating; conditions: Preemergence
Outline: as §1

[17] = system: foxtail, giant (giant foxtail, Setaria faberii); test: Test C preemergence, plant response rating; conditions: Preemergence
Outline: as §1

[18] = system: nutsedge, yellow (yellow nutsedge, Cyperus esculentus); test: Test C preemergence, plant response rating; conditions: Preemergence
Outline: as §1

FC(F)(F)CCCc1c(Br)cccc1Oc1ncc(Cl)cn1 [Compound 89]
Plant response rating, Morningglory ([1]; 16 g ai/ha, scale of 0 to 100): 5 | Plant response rating, Morningglory ([1]; 31 g ai/ha, scale 0 to 100): 15 | Morningglory plant response rating ([1]; 62 g ai/ha): 25 | Morningglory plant response rating ([1]; 125 g ai/ha): 55 | Plant response rating, Chickweed ([2]; 16 g ai/ha, scale of 0 to 100): 65 | Plant response rating, Chickweed ([2]; 31 g ai/ha, scale 0 to 100): 95 | Chickweed plant response rating ([2]; 62 g ai/ha): 85 | Chickweed plant response rating ([2]; 125 g ai/ha): 100 | Plant response rating, Foxtail, Giant ([3]; 16 g ai/ha, scale of 0 to 100): 10 | Plant response rating, Foxtail, Giant ([3]; 31 g ai/ha, scale 0 to 100): 10 | Foxtail, Giant plant response rating ([3]; 62 g ai/ha): 10 | Foxtail, Giant plant response rating ([3]; 125 g ai/ha): 20 | Plant response rating, Sedge, Umbrella [4]: 95 | Plant response rating, Barnyardgrass [5]: 40 | Plant response rating, Ducksalad [6]: 95 | Plant response rating, Rice (rice (Oryza sativa)): 40 | Plant response rating, Waterhemp ([7]; 125 g ai/ha, scale of 0 to 100): 100 | Plant response rating, Waterhemp ([7]; 31 g ai/ha, scale 0 to 100): 85 | Plant response rating, Waterhemp ([7]; 62 g ai/ha, scale 0 to 100): 100 | Plant response rating, Morningglory ([8]; 125 g ai/ha, scale of 0 to 100): 20 | Plant response rating, Morningglory ([8]; 31 g ai/ha, scale 0 to 100): 0 | Plant response rating, Morningglory ([8]; 62 g ai/ha, scale 0 to 100): 5 | Plant response rating, Oilseed Rape ([9]; 125 g ai/ha, scale of 0 to 100): 15 | Plant response rating, Oilseed Rape ([9]; 31 g ai/ha, scale 0 to 100): 0 | Plant response rating, Oilseed Rape ([9]; 62 g ai/ha, scale 0 to 100): 0 | Plant response rating, Ryegrass, Italian ([10]; 125 g ai/ha, scale of 0 to 100): 40 | Plant response rating, Ryegrass, Italian ([10]; 31 g ai/ha, scale 0 to 100): 5 | Plant response rating, Ryegrass, Italian ([10]; 62 g ai/ha, scale 0 to 100): 15 | Plant response rating, Soybean (soybean (Glycine max); 125 g ai/ha, scale of 0 to 100): 10 | Plant response rating, Soybean (soybean (Glycine max); 31 g ai/ha, scale 0 to 100): 5 | Plant response rating, Soybean (soybean (Glycine max); 62 g ai/ha, scale 0 to 100): 5 | Plant response rating, Blackgrass ([11]; 125 g ai/ha, scale of 0 to 100): 90 | Plant response rating, Blackgrass ([11]; 16 g ai/ha, scale 0 to 100): 5 | Plant response rating, Blackgrass ([11]; 31 g ai/ha, scale 0 to 100): 15 | Plant response rating, Blackgrass ([11]; 62 g ai/ha, scale 0 to 100): 85 | Plant response rating, Corn (corn (Zea mays); 125 g ai/ha, scale of 0 to 100): 10 | Plant response rating, Corn (corn (Zea mays); 16 g ai/ha, scale 0 to 100): 0 | Plant response rating, Corn (corn (Zea mays); 31 g ai/ha, scale 0 to 100): 0 | Plant response rating, Corn (corn (Zea mays); 62 g ai/ha, scale 0 to 100): 0 | Plant response rating, Velvetleaf ([12]; 125 g ai/ha, scale of 0 to 100): 60 | Plant response rating, Velvetleaf ([12]; 31 g ai/ha, scale 0 to 100): 20 | Plant response rating, Velvetleaf ([12]; 62 g ai/ha, scale 0 to 100): 25 | Plant response rating, Ragweed ([13]; 125 g ai/ha, scale of 0 to 100): 50 | Plant response rating, Ragweed ([13]; 31 g ai/ha, scale 0 to 100): 0 | Plant response rating, Ragweed ([13]; 62 g ai/ha, scale 0 to 100): 5 | Plant response rating, Wheat ([14]; 125 g ai/ha, scale of 0 to 100): 5 | Plant response rating, Wheat ([14]; 31 g ai/ha, scale 0 to 100): 0 | Plant response rating, Wheat ([14]; 62 g ai/ha, scale 0 to 100): 0 | Plant response rating, Crabgrass, Large ([15]; 125 g ai/ha, scale of 0 to 100): 98 | Plant response rating, Crabgrass, Large ([15]; 16 g ai/ha, scale 0 to 100): 75 | Plant response rating, Crabgrass, Large ([15]; 31 g ai/ha, scale 0 to 100): 98 | Plant response rating, Crabgrass, Large ([15]; 62 g ai/ha, scale 0 to 100): 100 | Plant response rating, Lambsquarters ([16]; 125 g ai/ha, scale of 0 to 100): 65 | Plant response rating, Lambsquarters ([16]; 31 g ai/ha, scale 0 to 100): 0 | Plant response rating, Lambsquarters ([16]; 62 g ai/ha, scale 0 to 100): 0 | Plant response rating, Foxtail, Giant ([17]; 125 g ai/ha, scale of 0 to 100): 85 | Plant response rating, Foxtail, Giant ([17]; 31 g ai/ha, scale 0 to 100): 5 | Plant response rating, Foxtail, Giant ([17]; 62 g ai/ha, scale 0 to 100): 60 | Plant response rating, Nutsedge, Yellow ([18]; 125 g ai/ha, scale of 0 to 100): 0 | Plant response rating, Nutsedge, Yellow ([18]; 31 g ai/ha, scale 0 to 100): 0 | Plant response rating, Nutsedge, Yellow ([18]; 62 g ai/ha, scale 0 to 100): 0
